In patent publication US8835454B2, “Fused bicyclic diamine derivatives as HIV attachment inhibitors” (priority 2011, dated 2014):
Where two headings read alike, the source gives them in different places.

System: HIV-1 LAI envelope single-round infectious reporter virus
Experiment: Single-round infectious luciferase reporter virus infection of MT2 cells (HIV-1 LAI envelope)
Format: cell-based
Conditions: Human immunodeficiency virus 1, MT2, 72 h
Source text: Human embryonic Kidney cell line, 293T (HEK 293T), was propagated in Dulbecco's Modified Eagle Medium (Invitrogen, Carlsbad, Calif.) containing 10% fetal Bovine serum (FBS, Sigma, St. Louis, Mo.). The human T-cell leukemia cell MT2 (AIDS Research and Reference Reagent Program, Cat. 237) was propagated in RPMI 1640 (Invitrogen, Carlsbad, Calif.) containing 10% fetal bovine serum (FBS, Hyclone, Logan, Utah)
Single-round infectious reporter virus was produced by co-transfecting HEK 293T cells with plasmide expressing the HIV-1 LAI envelope along with a plasmid containing an HIV-1 LAI proviral cDNA with the envelope gene replaced by a firefly luciferase reporter gene (Chen et al, Ref 41). Transfections were performed using lipofectAMINE PLUS reagent as described by the manufacturer (Invitrogen, Carlsbad, Calif.).
• 1. MT2 cells were plated in black, 384 well plates at a cell density of 5×10^3 cells per well in 25 μl RPMI 1640 containing 10% FBS. • 2. Compound (diluted in dimethylsulfoxide and growth medium) was added to cells at 12.5 μl/well, so that the final assay concentration would be ≦50 nM. • 3. 12.5 μl of single-round infectious reporter virus in Dulbecco's Modified Eagle Medium was added to the plated cells and compound at an approximate multiplicity of infection (MOI) of 0.01, resulting in a final volume of 50 μl per well. • 4. Virus-infected cells were incubated at 37 degrees Celsius, in a CO2 incubator, and harvested 72 h after infection. • 5. Viral infection was monitored by measuring luciferase expression in the infected cells using a luciferase reporter gene assay kit (Steady-Glo, Promega, Madison, Wis.) as described by the manufacturer. Luciferase activity was then quantified by measuring luminescence using an EnVision Multilabel Plate Readers (PerkinElmer, Waltham, Mass.). • 6. The percent inhibition for each compound was calculated by quantifying the level of luciferase expression in cells infected in the presence of each compound as a percentage of that observed for cells infected in the absence of compound and subtracting such a determined value from 100. • 7. An EC50 provides a method for comparing the antiviral potency of the compounds of this disclosure. The effective concentration for fifty percent inhibition (EC50) was calculated with the Microsoft Excel Xlfit curve fitting software. For each compound, curves were generated from percent inhibition calculated at 10 different concentrations by using a four parameter logistic model (model 205). Table 1 is the key for the data in Table 2.

[1] = read-out: EC50 Group from Table 1

| Compound | EC50 [1] | EC50 |
| --- | --- | --- |
| O=C(C(=O)N1CC2CN(c3nnnn3-c3ccccc3)CC2C1)c1c[nH]c2c(-n3ccnn3)ncc(F)c12 (stereo not shown) [Compound 1001, 1-(4-fluoro-7-(1H-1,2,3-triazol-1-yl)-1H-pyrrolo[2,3-c]pyridin-3-yl)-2-(5-(1-phenyl-1H-tetrazol-5-yl)hexahydropyrrolo[3,4-c]pyrrol-2(1H)-yl)ethane-1,2-dione] | < 500 nM |  |
| COc1cnc(-n2cnc(C)n2)c2[nH]cc(C(=O)C(=O)N3CC4CN(c5nnnn5-c5ccccc5)CC4C3)c12 (stereo not shown) [Compound 1002, 1-(4-methoxy-7-(3-methyl-1H-1,2,4-triazol-1-yl)-1H-pyrrolo[2,3-c]pyridin-3-yl)-2-(5-(1-phenyl-1H-tetrazol-5-yl)hexahydropyrrolo[3,4-c]pyrrol-2(1H)-yl)ethane-1,2-dione] | < 500 nM | 1.41 nM |
| COc1cnc(-n2cnc(C)n2)c2[nH]cc(C(=O)C(=O)N3CC4CN(Cc5ccccc5)CC4C3)c12 (stereo not shown) [Compound 2001] | < 500 nM |  |
| O=C(C(=O)N1CC2CN(Cc3ccccc3)CC2C1)c1c[nH]c2c(-n3ccnn3)ncc(F)c12 (stereo not shown) [Compound 2003] | > 500 nM |  |
| O=C(C(=O)N1CC2CN(C(=O)c3ccccc3)CC2C1)c1c[nH]c2c(-n3ccnn3)ncc(F)c12 (stereo not shown) [Compound 2005] | < 500 nM |  |
| COc1cnc(-n2cnc(C)n2)c2[nH]cc(C(=O)C(=O)N3CC4CN(C(=O)c5ccccc5)CC4C3)c12 (stereo not shown) [Compound 2006] | < 500 nM | 0.68 nM |
| CN(C)C(=O)N1CC2CN(C(=O)C(=O)c3c[nH]c4c(-n5ccnn5)ncc(F)c34)CC2C1 (stereo not shown) [Compound 3001, 5-(2-(4-fluoro-7-(1H-1,2,3-triazol-1-yl)-1H-pyrrolo[2,3-c]pyridin-3-yl)-2-oxoacetyl)-N,N-dimethylhexahydropyrrolo[3,4-c]pyrrole-2(1H)-carboxamide] | < 500 nM |  |
| COc1cnc(-n2cnc(C)n2)c2[nH]cc(C(=O)C(=O)N3CC4CN(C(=O)N(C)C)CC4C3)c12 (stereo not shown) [Compound 3002, 5-(2-(4-methoxy-7-(3-methyl-1H-1,2,4-triazol-1-yl)-1H-pyrrolo[2,3-c]pyridin-3-yl)-2-oxoacetyl)-N,N-dimethylhexahydropyrrolo[3,4-c]pyrrole-2(1H)-carboxamide] | < 500 nM |  |
